US20030216427A1, “Amine derivatives for the treatment of apoptosis” (priority 2000, published 2003)

Key:
gerbils = test: Global ischemia in gerbils (in vivo); parameters: species or system gerbil; settings: 30 mg/kg, 5 min carotid occlusion
Experimental: The ability of the amine compounds of formula I to protect cell death during a stroke event may be assessed using the following protocol:
Anesthesia: halothane or isoflurane (0.5-4%).
Sheaving of the gorge and incision of the skin.
The common carotid arteries (left and right) are freed from tissue.
Occlusion of the arteries using Bulldog microclamps during 5 min.
Disinfection of the surgery plan (Betadine®) and suture of the skin (Autoclip® or Michel's hooks).
Stabulation of the animals under heating lamp until awake.
Stabulation of the animals in the animalry in individual cages.
7 days after ischemia (Decapitation or overdose of pentobarbital).
Freezing of the brain in isopentane (−20° C.)
Slicing of the hippocampus using a cryo-microtome (20 μm).
Staining with cresyl violet and/or TUNEL method
Evaluation of the lesions (in CA1/CA2 subfields of the hippocampus)
Gerhard & Boast score modified or
Cell counting in the CA1/CA2
Microdissection of the cerebral structures
Parameters determined: DNA fragmentation, lactate, calcium penetration.
Analytical methods: ELISA, colorimetry, enzymology, radiometry.
Administration of the test article or the vehicle: 15 min after reperfusion (5-10 min after the recovery of the anesthesia).
50 animals : 5 groups of 10 (group A: control, groups B-D : test article at 3 doses and group E : reference compound (ketamine 3×120 mg/kg, ip or Orotic acid 3×300 mg/kg, ip).

male Wistar rats [1] = test: Kainate-induced neuronal cell death in the rat hippocampus; type: in vivo; settings: dose of 30 mg/kg (i.v.)
Experimental: The compounds of the present invention were also subjected to the model of kainate-induced neuronal cell death in the rat hippocampus. The method used was adapted from Gelowitz, Paterson, Pharmacol.Biochem.Behav., 62: 255-62 (1999), Magyar et al. Transm.Suppl., 52: 109-23 (1998) as well as Sperk et al, Brain Re., 338: 289-95 (1985). […] According to a preferred embodiment, the tested compounds display a protection rate of at least 25%, preferably of at least 40% at a dose of 30 mg/kg (i.v.)

male Wistar rats [2] = test: Transient model of focal cerebral ischemia (transient middle cerebral artery occlusion); type: in vivo, rat; settings: dose of 1 mg/kg (i.v.)
From the text: The compounds of the present invention were also subjected to the transient model of focal cerebral ischemia. The method used was adapted from Nagasawa and Kogure, Stroke, 20, 1037, 1989 as well as Zea Longa, Weinstein, Carlon and Cummins, Stroke, 20, 84, 1989.

[3] = tested on: Sympathetic neurons from superior cervical ganglia (SCG) of newborn rats; test: Sympathetic neuron culture and survival assay; type: cell-based, rat; settings: compound at 10 μM; 24 hours after cell death induction by anti NGF antibody, MTT
Experimental: Cell death is induced at day 4 after plating by exposing the culture to medium containing 10 µg/ml of anti NGF antibody (Boehringer Mannheim Corp., Indianapolis, Ind.) and no NGF or arabinosine, in the presence or absence of amino derivatives according to formula I. 24 hours after cell death induction, determination of cell viability is performed by incubation of the culture for 1 hour, at 37° C. in 0.5 mg/ml of 3-(4,5-dimethyl-thiazol-2-yl)2,5 diphenyl tetrazolium bromide (MTT). After incubation in MTT cells are re-suspended in DMSO, transferred to a 96 MTT plate and cell viability is evaluated by measuring optical density at 590nm.

recombinant Bax = biological target: T1, recombinant Bax (Homo sapiens, UniProt Q07812); test: In vitro assay for cytochrome c release (mouse liver mitochondria incubated with recombinant Bax); type: biochemical; settings: compound at a concentration of 10 μM, 200 nM recombinant Bax
T1 construct: Bax-α lacking 20 amino acids at the COOH-terminus; GST (cleaved yes); His; made in house; host or cells: Escherichia coli
T1 sequence (Q07812 1-172 limits assumed): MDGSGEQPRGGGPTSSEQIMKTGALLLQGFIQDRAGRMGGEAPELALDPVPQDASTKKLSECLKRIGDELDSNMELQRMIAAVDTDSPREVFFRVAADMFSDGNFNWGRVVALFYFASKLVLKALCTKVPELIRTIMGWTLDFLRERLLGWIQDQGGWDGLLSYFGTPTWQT
From the text: Hunan Bax-α lacking 20 amino acids at the COOH-terminus is expressed as a GST fusion protein or a His-tagged protein in Escherichia coli, and the protein is purified from the soluble cell fraction. In brief, the GST-Bax fusion protein is applied to a glutathione-Sepha-rose column, and Bax was released by cleavage with thrombin (0.6U/mL). Bax is subsequently purified on heparin-Sepharose, followed by fast protein liquid chromatography (FPLC) Mono Q. His-tagged Bax is purified on a Ni-nitriloacetic acid-agarose column followed by FPLC MonoQ:
Mitochondria are isolated from mouse liver cells by differential centrifugation Cells are broken with a dounce homogenizer and the suspension is centrifuged at 2,000 g in an Eppendorf centrifuge at 4° C. This procedure is repeated until almost all the cells are broken. Supernatants from each step are pooled before centrifugation at 13,000 g at 4° C. for 10 min. […]
Mitochondria (30 μg) from mouse liver are incubated with 200 nM recombinant Bax in the presence of various compounds (5 μM) in 200 μL of KCl buffer for 20 min at 30° C. and are then centrifuged for 4 min at 13,000 g at 4° C. […] Antigen-antibody complexes are detected using horseradish peroxidase-conjugated goat anti-rabbit IgG and enhance chemi-luminescence detection reagents. The cytochrome c bands are scanned and quantified using a Bio-Rad (GS-700 Imaging Densitometer).

[4] = tested on: Bid-induced Bax activation; test: Release of cytochrome c triggered by Bid-induced Bax activation (mitochondria isolated from HeLa cells); type: biochemical; settings: compound at a concentration of 5 μM, 10 nM recombinant Bid
Experimental: Concerning the Bid-induced activation of Bax leading to mitochondrial Cytochrome C release, it is referred to the description of Martinou et al. in The Journal of Cell Biology, Vol. 144, No. 5, Mar. 8, 1999, pages 891-901 as well as Eskes, Desagher, Antonsson and Martinou in Molecular and Cellular Biology, February 2000, p. 929-935, Vol. 20, No. 3. Mitochondria isolated from HeLa cells are incubated for 15 min at 30° C. in 100 μl of KCl buffer in the presence or absence of 10 nM recombinant Bid. […] Following incubation, mitochondria were centrifuged for 5 min at 13000 g at 4° C. and the supernatant is collected for cytochrome c analysis. Cytochrome c is detected by Western blotting. The cytochrome c bands are scanned and quantified using a Bio-Rad (GS-700 Imaging Densitometer).

`CCCCCCCCCCCCC(=O)N1CCC[C@@H]1C(=O)NCCCCCN` [Example 139, (R)-N-(5-aminopentyl)-1-tridecanoylpyrrolidine-2-carboxamide] was tested, and the “protection rate of cell survival” value (gerbils) was roughly 55%.
In the case of `CCCCCCCCCCCCC(=O)N1CCCC[C@H]1C(=O)NCCCCCCN` [Example 1, (S)-1-Tridecanoyl-piperidine-2-carboxylic acid (6-amino-hexyl)-amide], the “protection rate of cell survival” value (gerbils) is reported as “about 45%”, the protection rate (male Wistar rats [1]) is reported as “about 50%” and the “decrease in the cortex infarct volume” value (male Wistar rats [2]) is reported as “about 56%”.
With `CCCCCCCCCCCCC(=O)N1CCCC[C@@H]1C(=O)NCCCCCCN` [Example 2, (R)-N-(6-aminohexyl)-1-tridecanoylpiperidine-2-carboxamide] the neuronal survival rate [3] was “about 41%”.
For `CCCCCCCCCCCCC(=O)N1CCC[C@H]1C(=O)NCCCCCCN` [Example 7, (S)-N-(6-aminohexyl)-1-tridecanoylpyrrolidine-2-carboxamide], the inhibition at 10 µM (recombinant Bax) was roughly 88%.
With `CCCCCCCCCCCCC(=O)N(C)[C@H](C(=O)NCCCCCCN)C(C)C` [Example 22, (S)-N-(1-{[(6-aminohexyl)amino]carbonyl)-2-methylpropyl)-N-methyltridecanamide] the “inhibition of the cytochrome c release” value [4] was “about 95%”.
